Values belong to the compound of their own block, whether it stands above or below them.
Columns and labels:
[1] = tested on: Human mammary carcinoma (MX-1) tumor cells; test: In vitro cytotoxicity, SRB assay; details: read-out: IC50 MX-1; SRB assay, 72-hr incubation
CCRF-CEM/Taxol = test: In vitro cytotoxicity, XTT assay, taxol-resistant subline; details: for fold of cross-resistant, CCRF-CEM/Taxol vs IC50 of parent cell line: number in brackets; for IC50: read-out: IC50 CCRF-CEM/Taxol, XTT assay, 72-hr incubation
[2] = tested on: CCRF-CEM human lymphoblastic leukemia cells; test: In vitro cytotoxicity, XTT assay; details: read-out: IC50 CCRF-CEM; XTT assay, 72-hr incubation
[3] = tested on: human glioma U87 GM s.c. xenograft; test: Therapeutic effect in nude mice bearing U87 glioma xenograft; type: in vivo
Description: (§1) Athymic nude mice bearing the nu/nu gene were used for human breast tumor MX-1 xenograft (FIGS. 3 and 4) and human brain glioma U87 GM xenograft (FIG. 5). Nude mice were obtained from National Cancer Institute, Frederick, Md. Male mice 6 weeks old or older weighing 22 g or more were used for experiments with subcutaneous tumor inoculation as described previously.^62 Drug was administrated via the tail vein by iv injection. Tumor volumes were assessed by measuring length×width×height (or width) by using caliper. Vehicle used was 20 μL DMSO in 180 μL saline. All animal studies were conducted in accordance with the guidelines of the U.S. National Institutes of Health Guide for the Care and Use of Animals and the protocol approved by the Institutional Animal Care and Use Committee.
The therapeutic effects of N-mustard compounds, BO-1049, 1051 and 1055, against human glioma U87 GM s.c. xenograft in nude mice were given in FIG. 5, A and B. U87 glioma is known to be refractory tumor that can not be effectively treated with cell-cycle specific anti-tumor drugs such as taxol, epothilones, or arabinosylcytosine. However, cell-cycle non-specific drugs such as alkylating agent, cyclophosphamide or BCNU, yields better therapeutic results. […] However, upon 6 days of recession of treatment with BO-1049 or BO-1055, the tumor began to regrow.
(§2) Animals. Athymic nude mice bearing the nu/nu gene were obtained from NCI, Frederick, Md. and used for all human tumor xenografts. Male nude mice 6 weeks or older weighing 20-24 g or more were used. Compounds were administered via the tail vein for i.v. injection or infusion as described previously.^59 A typical formulation for chemotherapeutic studies for each drug was dissolved in DSMO to make a 25 mg/ml fresh solution, 0.4 ml of this solution was mixed with 0.3 ml of Tween 80, plus 1.3 ml to make 2 ml of 5 mg/ml solution. Bolus injection volume was 0.1-0.2 ml per mouse. Tumor volume was assessed by measuring length×width×height (or width) by using a caliper. For tumor-bearing nude mice during the course of the experiment, the body weight refers to total weight minus the weight of the tumor. All animal studies were conducted in accordance with the guidelines for the National Institute of Health Guide for the Care and Use of Animals and the protocol approved by the Institutional Animal Care and Use Committee.

[4] = tested on: human mammary carcinoma MX-1 xenograft; test: Antitumor therapeutic effect in nude mice bearing MX-1 xenograft; type: in vivo; details: for log cell kill: estimated by Eq. 4 from remission time; for Duration complete remission maintained without relapse: one cycle 5-dose-treatment, 3 out of 3 mice
Description: as §1, §2
The therapeutic effects of a drug against human tumor xenografts in nude mice, under the optimal therapeutic conditions but without any lethality due to drug toxicity, the following degrees of therapeutic effects are defined and calculated by the following formula:
[formula] • where T0 is the initial tumor size (in mm^3) at beginning of drug treatment; • Tc is tumor size of untreated control group on a given date; and • Tx is tumor size of the drug treated group on a given date.
[formula] • Where T0 and Tx are as specified as above. • Tumor disappearance (complete remission or CR) is defined by the effect where [Tx=0] for a period of time (in days) for a proportion of animals (NCR/N), where N is the total number of animals in the group, and NCR is the number of mice in the group that achieved CR. • Tumor relapse is quantitatively calculated by [The Day tumor relapsed(Drelp)−The Day CR achieved(DCR)] (Eq. 3) • for a proportion of animals (Nrelp/N) where N is the total number of animals in the group, and Nrelp is the number of the mice in the group that relapsed. • The log cell kill (LCK) of the tumor tissue after a given chemotherapy that reached CR is estimated by: LCK=log [2^(Tumor remission in days/Tumor doubling time in days)] (Eq. 4)

[5] = tested on: Human colon carcinoma HCT-116 cells; test: In vitro cytotoxicity, SRB assay; details: read-out: IC50 HCT-116; SRB assay, 72-hr incubation
[6] = unpublished results of the applicant
[7] = tested on: various human leukemia and solid tumor; details: in vitro and in vivo; cited from earlier work
[8] = 150 mg/kg, Q2D×5, i.v.-injection

- melting point: 224 to 225 °C
Compound: COc1ccc2nc(C)cc(NNC(=O)Nc3ccc(N(CCCl)CCCl)cc3)c2c1

- melting point: 235 to 236 °C
Compound: Cc1cc(NNC(=O)Nc2ccc(N(CCCl)CCCl)cc2)c2ccccc2n1

- melting point: 217 to 218 °C
Compound: Cc1cc(Oc2ccc(NC(=O)Nc3ccc(N(CCCl)CCCl)cc3)cc2)c2cc3c(cc2n1)OCO3

- melting point: 183 to 184 °C
Compound: Cc1cc(Oc2ccc(NC(=O)Oc3ccc(N(CCCl)CCCl)cc3)cc2)c2cc3c(cc2n1)OCO3

Compound: 1-{4-[Bis-(2-chloroethyl)amino]phenyl-3-[6-methoxy-2-(4-methoxyphenyl)quinolin-4-yl]urea [BO-1049]
- IC50 [1]: 1840 nM
- fold of cross-resistant, CCRF-CEM/Taxol vs IC50 of parent cell line (CCRF-CEM/Taxol): 1.6 x
- IC50 (CCRF-CEM/Taxol): 587 nM
- IC50 [2]: 366 nM
- time after end of treatment at which tumor began to regrow [3, 8]: 6 days
- tumor-growth suppression [3, 8]: complete tumor-growth suppression
- therapeutic effect compared with cyclophosphamide ([3]; BO-1049 150, BO-1051 100, BO-1055 30 mg/kg vs cyclophosphamide 80 mg/kg, all Q2D×5, parallel study): superior therapeutic effects than cyclophosphamide
- Tumor remission achieved ([4]; doses and schedules as in Table 2 (30-150 mg/kg, i.v.)): complete tumor remission
- log cell kill [4]: > 4.1
- Duration complete remission maintained without relapse [4]: over 70 days
- IC50 [5]: 3740 nM

Compound: OCc1cc(Nc2c3ccccc3nc3ccccc23)cc(OCCN(CCCl)CCCl)c1 [BO-0742]
- half-life in mice [6]: about 25 min
- cytotoxicity relative to AHMA (times more cytotoxic) [7]: > 100 time

Compound: COc1cc(N)cc(Nc2c3ccccc3nc3c(OCCN(CCCl)CCCl)cccc23)c1.Cl [BO-0940, N1-(4-{2-[bis(2-chloroethyl)-amino]-ethoxy}acridin-9-yl)-5-methoxybenzene-1,3-diamine hydrochloride]
- cytotoxicity relative to AHMA (times more cytotoxic) [7]: > 100 time

Compound: CN(C)CCNC(=O)c1cccc(NC(=O)Nc2ccc(N(CCCl)CCCl)cc2)c1.Cl [BO-1055, 3-(3-{4-[Bis(2-chloroethyl)amino]phenyl}ureido)-N-(2-dimethylaminoethyl)benzamide hydrochloride]
- IC50 [1]: 551 nM
- fold of cross-resistant, CCRF-CEM/Taxol vs IC50 of parent cell line (CCRF-CEM/Taxol): 15.4 x
- IC50 (CCRF-CEM/Taxol): 1200 nM
- IC50 [2]: 127 nM
- time after end of treatment at which tumor began to regrow ([3]; 30 mg/kg, Q2D×5, i.v.-injection): 6 days
- Maximal body-weight loss (%) ([4]; 30 mg/kg, Q2D × 5, i.v.): 15%
- log cell kill [4]: > 4.1
- Duration complete remission maintained without relapse [4]: over 70 days
- IC50 [5]: 661 nM

Reference: patent publication US8222297B2, “Aniline or phenol mustards linked to DNA-affinic molecules or water-soluble aromatic rings and their use as cancer therapeutic agents” (Academia Sinica, priority 2007, dated 2012)
